The test system of the assay is human colon carcinoma HT-29 cells. Kind of assay: XTT cell proliferation assay, HT-29. The format is cell-based. Particulars: HT-29, XTT. How it is done:
The ability of compounds of Formula I to inhibit the proliferation of human colon carcinoma HT-29 cells was tested as follows. HT-29 colon carcinoma cells used in this example and subsequent examples were maintained as a monolayer in a growth medium; McCoy's 5A modified medium (Sigma, St. Louis, Mo.), supplemented with 2 mM L-glutamine (Gibco, Grand Island, N.Y.), 10% fetal bovine serum (FBS) (Multicell, WISENT Inc. St-Bruno, QC), antibiotic-antimycotic (Multicell), at 37° C. in a 5% CO2-humidified incubator. Cells were transferred onto 150 mm tissue culture plates and grown until sub-confluency (70-80%) prior to their use. The in vitro antiproliferative activity of compounds was evaluated by incubating the cells with varying concentrations of the compounds as shown in Table 1 for 6-7 days. The efficacy of these compounds in this cell proliferation assay was measured based in the ability of live cells to reduce the tetrazolium salt XTT to orange colored compounds of formazan (XTT cell proliferation kit II, Roche Applied Science, Montreal, QC).
The ability of compounds of Formula I to inhibit the proliferation of human colon carcinoma HT-29 cells was tested as described above in Example 13.
Cell growth inhibition IC50 (μM) by compounds of Formula I was tested on various cancer cell types by XTT cell proliferation assay. The growth inhibitory effects of the compounds of Formula I as shown below for the melanoma cell line SK-MEL-2 were reproducible by Lorus Therapeutics Inc.
(In general: Tetrazolium assays rely on reduction of a dye to a coloured formazan, in cell work by metabolically active cells.)

The mark [1] stands for this setting: Homo sapiens, as Example 13, Table 7, read-out: IC50.
Setting [2] is: Homo sapiens, 6-7 days, Table 3, read-out: IC50.

Structures are written as SMILES. Where two headings read alike, the source gives them in different places.

For orientation: IC50 means the concentration at which inhibition is half-maximal.

For the compound `c1ccc2c(-c3nc4c5cccnc5c5ncccc5c4[nH]3)c[nH]c2c1` [Compound 1], the IC50 (as Example 13, Table 7) worked out at 2 µg/mL.

For `Fc1ccc2[nH]cc(-c3nc4c5cccnc5c5ncccc5c4[nH]3)c2c1` [Compound 4], under setting [1], the IC50 came to 3.5 µg/mL.

Regarding `COc1ccc2[nH]c(C)c(-c3nc4c5cccnc5c5ncccc5c4[nH]3)c2c1` [Compound 6], the IC50 reads like this: under setting [2], 1400 nM; under setting [1], 1.4 µg/mL.

In the case of `Cc1[nH]c2ccc(O)cc2c1-c1nc2c3cccnc3c3ncccc3c2[nH]1` [Compound 8], the IC50 under setting [1] is greater than 25 µg/mL.

For `Fc1ccc(-c2[nH]c3ccccc3c2-c2nc3c4cccnc4c4ncccc4c3[nH]2)cc1` [Compound 10], the IC50 by setting is: under setting [2], 180 nM; under setting [1], 0.18 µg/mL.

`Cn1c(-c2ccccc2)c(-c2nc3c4cccnc4c4ncccc4c3[nH]2)c2ccccc21` [Compound 18]: the IC50 (as Example 13, Table 7) worked out at 0.37 µg/mL.

As for `Cc1[nH]c2ccc([N+](=O)[O-])cc2c1-c1nc2c3cccnc3c3ncccc3c2[nH]1` [Compound 38], the IC50 (as Example 13, Table 7) turned out to be 3.5 µg/mL.

As for `CC(C)(C)c1[nH]c2ccccc2c1-c1nc2c3cccnc3c3ncccc3c2[nH]1` [Compound 39], the IC50 (as Example 13, Table 7) stood at 0.45 µg/mL.

As for `Clc1ccc(-c2[nH]c3ccccc3c2-c2nc3c4cccnc4c4ncccc4c3[nH]2)cc1` [Compound 42], for the setting “as Example 13, Table 7”, the IC50 was found to be 0.31 µg/mL.

As to `Cc1c(-c2nc3c4cccnc4c4ncccc4c3[nH]2)c2ccccc2n1CC(=O)N1CCCC1` [Compound 43], the IC50 (as Example 13, Table 7) is >5-25< μg/ml.

Take `O=C(Cn1cc(-c2nc3c4cccnc4c4ncccc4c3[nH]2)c2ccccc21)N1CCOCC1` [Compound 44]: where the note is “as Example 13, Table 7”, the IC50 is listed as >5-25<, μg/ml.

For the setting “as Example 13, Table 7”, `O=C(Cn1cc(-c2nc3c4cccnc4c4ncccc4c3[nH]2)c2ccccc21)N1CCCCCC1` [Compound 45] had an IC50 of 7 µg/mL.

Regarding `O=C(Cn1cc(-c2nc3c4cccnc4c4ncccc4c3[nH]2)c2ccccc21)N1CCCC1` [Compound 46], the IC50 (as Example 13, Table 7) is >5-25< μg/ml.

In turn, `O=C(Cn1cc(-c2nc3c4cccnc4c4ncccc4c3[nH]2)c2ccccc21)N1CCCCC1` [Compound 47] returned an IC50 (as Example 13, Table 7) of 5 µg/mL.

`O=C(Cn1cc(-c2nc3c4cccnc4c4ncccc4c3[nH]2)c2cc(Br)ccc21)N1CCCC1` [Compound 49]: the IC50 (as Example 13, Table 7) is on record as >5-25< μg/ml.

`CC1CCCC(C)N1C(=O)Cn1cc(-c2nc3c4cccnc4c4ncccc4c3[nH]2)c2ccccc21` (stereo not shown) [Compound 50]: under “as Example 13, Table 7”, the IC50 came out at 2.3 µg/mL.

As for `CC1CCN(C(=O)Cn2cc(-c3nc4c5cccnc5c5ncccc5c4[nH]3)c3ccccc32)CC1` [Compound 51], the IC50 (as Example 13, Table 7) came out at 5 µg/mL.

For the compound `CC(C)n1cc(-c2nc3c4cccnc4c4ncccc4c3[nH]2)c2ccccc21` [Compound 52], the IC50 (as Example 13, Table 7) stood at 0.19 µg/mL.

For the setting “as Example 13, Table 7”, `c1ccc2c(c1)c(-c1nc3c4cccnc4c4ncccc4c3[nH]1)cn2C1CCCC1` [Compound 53] displayed an IC50 of 0.19 µg/mL.

For the compound `COc1ccc2c(c1)c(-c1nc3c4cccnc4c4ncccc4c3[nH]1)cn2C(C)C` [Compound 54], the IC50 (as Example 13, Table 7) came out at 0.28 µg/mL.

Compound `Cc1c(-c2nc3c4cccnc4c4ncccc4c3[nH]2)c2ccccc2n1CC(=O)N1CCC(C)CC1` [Compound 55] displayed an IC50 (as Example 13, Table 7) of 2.4 µg/mL.

In turn, `Cc1c(-c2nc3c4cccnc4c4ncccc4c3[nH]2)c2ccccc2n1CC(=O)N1CCCCCC1` [Compound 56] returned an IC50 (as Example 13, Table 7) of 5 µg/mL.

For `Cc1c(-c2nc3c4cccnc4c4ncccc4c3[nH]2)c2ccccc2n1CC(=O)N1CCCCC1` [Compound 57], the IC50 (as Example 13, Table 7) was 5 µg/mL.

In the case of `CN1CCN(C(=O)Cn2cc(-c3nc4c5cccnc5c5ncccc5c4[nH]3)c3ccccc32)CC1` [Compound 58], the IC50 entry (as Example 13, Table 7) was “>”.

As for `Cn1c(N2CCOCC2)c(-c2nc3c4cccnc4c4ncccc4c3[nH]2)c2ccccc21` [Compound 59], the IC50 (as Example 13, Table 7) was found to be 0.6 µg/mL.

For the compound `CC(C)c1ccc2[nH]c(C(C)(C)C)c(-c3nc4c5cccnc5c5ncccc5c4[nH]3)c2c1` [Compound 61], the IC50 (as Example 13, Table 7) was 0.4 µg/mL.

`Cc1cccc2c(-c3nc4c5cccnc5c5ncccc5c4[nH]3)c(C(C)(C)C)[nH]c12` [Compound 62] registered an IC50 (as Example 13, Table 7) of less than 0.1 µg/mL.

Consider `CC(C)(C)c1[nH]c2ccc(F)cc2c1-c1nc2c3cccnc3c3ncccc3c2[nH]1` [Compound 65], for which the IC50 (as Example 13, Table 7) amounted to 0.35 µg/mL.

Consider `CC(C)(C)c1[nH]c2c(F)cc(F)cc2c1-c1nc2c3cccnc3c3ncccc3c2[nH]1` [Compound 66], for which the IC50 (as Example 13, Table 7) amounted to 0.4 µg/mL.

The compound `CC(C)(C)c1[nH]c2ccc(-c3ccccc3)cc2c1-c1nc2c3cccnc3c3ncccc3c2[nH]1` [Compound 68] gave an IC50 (as Example 13, Table 7) of 0.34 µg/mL.

As to `Cc1ccc(C)c2c(-c3nc4c5cccnc5c5ncccc5c4[nH]3)c(C34CC5CC(CC(C5)C3)C4)[nH]c12` [Compound 70], for the setting “as Example 13, Table 7”, the IC50 is 0.35 µg/mL.

The compound `CC(C)(C)c1[nH]c2ccc(C#N)cc2c1-c1nc2c3cccnc3c3ncccc3c2[nH]1` [Compound 71] showed an IC50 (as Example 13, Table 7) of 3 µg/mL.

Consider `Fc1ccc2[nH]c(C34CC5CC(CC(C5)C3)C4)c(-c3nc4c5cccnc5c5ncccc5c4[nH]3)c2c1` [Compound 72], for which the IC50 (as Example 13, Table 7) was found to be 0.18 µg/mL.

With `CC(C)(C)c1ccc2[nH]c(C3CCCC3)c(-c3nc4c5cccnc5c5ncccc5c4[nH]3)c2c1` [Compound 73], the IC50 (as Example 13, Table 7) worked out at 0.22 µg/mL.

As for `Cc1ccccc1-c1[nH]c2ccc(C(C)(C)C)cc2c1-c1nc2c3cccnc3c3ncccc3c2[nH]1` [Compound 74], the IC50 (as Example 13, Table 7) is 0.18 µg/mL.

Turning to `O=S(=O)(c1ccc2[nH]c(Cl)c(-c3nc4c5cccnc5c5ncccc5c4[nH]3)c2c1)N1CCOCC1` [Compound 75], the IC50 (as Example 13, Table 7) was greater than 25 µg/mL.

For `CN(C)S(=O)(=O)c1ccc2[nH]c(Cl)c(-c3nc4c5cccnc5c5ncccc5c4[nH]3)c2c1` [Compound 76], under “as Example 13, Table 7”, the IC50 is greater than 25 µg/mL.

`Cc1c(-c2nc3c4cccnc4c4ncccc4c3[nH]2)c2cc(F)ccc2n1Cc1ccccc1` [Compound 77] returned an IC50 (as Example 13, Table 7) of 0.24 µg/mL.

Under “as Example 13, Table 7”, `c1ccc2c(-c3nc4c5cccnc5c5ncccc5c4[nH]3)c(C34CC5CC(CC(C5)C3)C4)[nH]c2c1` [Compound 78] displayed an IC50 of 0.38 µg/mL.

For `CC(C)c1[nH]c2ccccc2c1-c1nc2c3cccnc3c3ncccc3c2[nH]1` [Compound 79], the IC50 (as Example 13, Table 7) is 0.65 µg/mL.

Regarding `c1ccc2c(-c3nc4c5cccnc5c5ncccc5c4[nH]3)c(C3CCCCC3)[nH]c2c1` [Compound 80], the IC50 (as Example 13, Table 7) worked out at 0.42 µg/mL.

For the setting “as Example 13, Table 7”, `c1ccc2c(-c3nc4c5cccnc5c5ncccc5c4[nH]3)c(C3CCCC3)[nH]c2c1` [Compound 81] returned an IC50 of 0.4 µg/mL.

The compound `CC(C)c1[nH]c2ccc(F)cc2c1-c1nc2c3cccnc3c3ncccc3c2[nH]1` [Compound 82] came in with an IC50 (as Example 13, Table 7) of 0.61 µg/mL.

`Cc1ccc(F)c2c(-c3nc4c5cccnc5c5ncccc5c4[nH]3)c(C(C)(C)C)[nH]c12` [Compound 83] returned an IC50 (as Example 13, Table 7) of 0.1 µg/mL.

Consider `Cc1cc(Cl)cc2c(-c3nc4c5cccnc5c5ncccc5c4[nH]3)c(C(C)(C)C)[nH]c12` [Compound 84], for which the IC50 (as Example 13, Table 7) is 0.39 µg/mL.

The compound `Cc1ccc(Cl)c2c(-c3nc4c5cccnc5c5ncccc5c4[nH]3)c(C(C)(C)C)[nH]c12` [Compound 85] returned an IC50 (as Example 13, Table 7) of 0.24 µg/mL.

In turn, `CCc1ccc2[nH]c(C(C)(C)C)c(-c3nc4c5cccnc5c5ncccc5c4[nH]3)c2c1` [Compound 86] registered an IC50 (as Example 13, Table 7) of 0.47 µg/mL.
